In BindingDB's records for doi:10.1074/jbc.M112.419069 (John Innes Centre, 2013):

molecular target: DNA gyrase subunit A (Mycobacterium tuberculosis (strain ATCC 25618 / H37Rv), UniProt P9WG47); assay: Enzyme Assay
Description: Mycobacterium tuberculosis gyrase supercoiling, relaxation, and decatenation assays were carried out as described previously.

Sequence of DNA gyrase subunit A (P9WG47 whole entry): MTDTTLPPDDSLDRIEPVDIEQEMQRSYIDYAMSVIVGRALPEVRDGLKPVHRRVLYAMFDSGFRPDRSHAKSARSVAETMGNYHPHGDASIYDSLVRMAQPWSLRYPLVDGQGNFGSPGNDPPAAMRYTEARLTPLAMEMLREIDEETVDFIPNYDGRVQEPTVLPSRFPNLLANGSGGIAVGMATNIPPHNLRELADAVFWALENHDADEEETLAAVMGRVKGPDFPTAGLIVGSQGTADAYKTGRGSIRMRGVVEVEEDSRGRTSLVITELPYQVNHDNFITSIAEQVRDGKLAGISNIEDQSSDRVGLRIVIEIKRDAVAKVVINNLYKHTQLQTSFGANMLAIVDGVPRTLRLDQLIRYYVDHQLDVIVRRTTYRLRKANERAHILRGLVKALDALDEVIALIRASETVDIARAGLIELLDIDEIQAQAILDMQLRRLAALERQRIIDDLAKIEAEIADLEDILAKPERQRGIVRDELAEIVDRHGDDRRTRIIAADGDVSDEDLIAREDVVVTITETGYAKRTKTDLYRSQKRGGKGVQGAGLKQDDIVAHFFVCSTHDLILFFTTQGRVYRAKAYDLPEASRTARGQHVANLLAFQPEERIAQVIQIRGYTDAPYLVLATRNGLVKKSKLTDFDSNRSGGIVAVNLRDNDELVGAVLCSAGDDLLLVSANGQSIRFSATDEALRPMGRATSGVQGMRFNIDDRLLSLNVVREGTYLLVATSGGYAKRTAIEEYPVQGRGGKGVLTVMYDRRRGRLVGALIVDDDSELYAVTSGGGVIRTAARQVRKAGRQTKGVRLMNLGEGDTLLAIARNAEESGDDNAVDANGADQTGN

| SMILES | IC50 |
| --- | --- |
| Cc1cc2c(c(O)c1-c1c(C)cc(O)c3c1C(=O)C=CC3=O)C(=O)C=CC2=O [Isodiospyrin] | 100 µM |
| Cc1cc(O)c2c(c1)C(=O)C=CC2=O [5-Hydroxy-7-methyl-[1,4]naphthoquinone] | 30 µM |
| Cc1cc(O)c2c(c1)C(=O)C(c1c(C)cc3c(c1O)C(=O)C=CC3=O)=CC2=O [Diospyrin] | 15 µM |
| Cc1cc(O)c2c(c1)C(=O)C=C(c1c(C)cc(O)c3c1C(=O)C=CC3=O)C2=O [Neodiospyrin] | 50 µM |
| CC1=CC(=O)c2ccccc2C1=O [Vitamin K3] | > 200 µM |
